Results from patent US20220313780A1, “METHODS AND COMPOSITIONS FOR TREATING INFLAMMATORY CONDITIONS” (THE SCRIPPS RESEARCH INSTITUTE, priority 2019, published 2022).
No end group written: not given here.

Test system: caspase 1
Assay: Caspase 1 activity assay in PMA-differentiated THP1 cells treated with LPS and ATP
Assay type: cell-based, human
Conditions: for anti-inflammatory activities relative to that of TR47: summary statement on exemplified TR47 fragments and variants
Protocol: THP1-null (THP1) cells were plated at a final concentration of 1×10^6/mL in 96 well plates and incubated with PMA (0.5 μM) for 3 hours 37° C. in supplemented RPMI. Media was subsequently changed every 24 hours for 3 days. Various subsets of wells were selected and cells were treated for 60 minutes at 37° C. in serum-free RPMI with: (A) APC (4 μg/mL), TR47 (50 μM-2 nM), scrTR47 (50 μM), SFLLRN (50 μM), TFLLRN (50 μM); (B) P3R (50 μM-500 nM), P3K (50 μM); (C) APC (4 or 1 μg/mL), TR47 (8 nM), P3R (500 nM) or TR47+P3R (8 nM and 500 nM, respectively); (D) TR47 (0-128 nM) (●)±P3R (500 nM) (□); (E) P3R (0-500 nM) (●)±TR47 (1 nM) (□). Following DPBS wash, cells were incubated with LPS (1 μg/mL) for 3 hours at 37° C. in serum-free RPMI. After a DPBS wash, cells were incubated with ATP (5 mM) in the presence or absence of 10 μM YVAD (caspase 1 inhibitor) or 2.5 μM ZVAD (pan-caspase inhibitor) for 45 minutes at 37° C., prior to performing the caspase 1 activity assay following manufacturer's directions measuring luminescence (relative luminescent units, RLU). (D & E) Experimental caspase 1 activity was normalized to YVAD (caspase 1 inhibitor) luminescence units. (A-E) Data points represent mean±S.D. of at least 3 independent experiments. *P<0.05 (vs. LPS+ATP); #P<0.05 (vs. LPS+ATP & APC, TR47 or P3R); **P<0.005 (vs. LPS+ATP & TR47+500 nM P3R); n.s. not significant.
THP1 cells were plated at a final concentration of 1×10^6/mL in 96 well plates and incubated with PMA (0.5 μM) for 3 hours 37° C. in supplemented RPMI. Media was subsequently changed every 24 hours for 3 days. Selected wells were treated with APC (4 μg/mL), (A) 50 μM or (B) 2 μM of P3R, P3Rm, P3R 51-65, P3R 51-59, P3R 54-59 or P3R 59-65 for 1 hour, washed with DPBS, and incubated with LPS (1 μg/mL) for 3 hours at 37° C. in serum-free RPMI. Cells were washed with DPBS and incubated with ATP (5 mM) in the presence or absence of 10 μM YVAD (caspase 1 inhibitor; C1i) or 2.5 μM ZVAD (pan-caspase inhibitor; pCi) for 45 minutes at 37° C., prior to performing the caspase 1 activity assay following manufacturer's directions measuring luminescence (relative luminescent units, RLU). (C) Diagram showing the PAR3 sequence, peptide sequences and relative (anti-inflammatory) activity. These include sequences of P3R (SEQ ID NO:4), P3Rm (SEQ ID NO:8), P3R 51-65 (SEQ ID NO:9), P3R 51-59 (SEQ ID NO:10), P3R 54-59 (SEQ ID NO:54) and P3R 59-65 (SEQ ID NO:55).
THP1 cells were plated at a final concentration of 1×10^6/mL in 96 well plates and incubated with PMA (0.5 μM) for 3 hours 37° C. in supplemented RPMI. Media was subsequently changed every 24 hours for 3 days. Selected wells were treated with APC (4 μg/mL), TR47, in (A) 9-mer (TR47 9-mer; NPNDKYEPF (SEQ ID NO:36)) or Ac-TR47 (Acylated TR47) at either 50 μM or 10 nM or (B) 50 μM of 16-mer-TR47, 8-mer-TR47, 6-mer-TR47, TR47 N−1, TR47 N−2, TR47 N−5, TR47AQ, TR47AD, TR47AA or TR48-54 for 1 hour, washed with DPBS, and incubated with LPS (1 μg/mL) for 3 hours at 37° C. in serum-free RPMI. Cells were washed with DPBS and incubated with ATP (5 mM) in the presence or absence of 10 μM YVAD (caspase 1 inhibitor; C1i) or 2.5 μM ZVAD (pan-caspase inhibitor; pCi) for 45 minutes at 37° C., prior to performing the caspase 1 activity assay following manufacturer's directions measuring luminescence (relative luminescent units, RLU). #P<0.001 (vs. LPS+ATP), **P<0.005 (vs. LPS+ATP), * (P<0.05 vs. LPS+ATP). (C) Diagram showing the PAR1 sequence, peptide sequences and relative (anti-inflammatory) activity. These include sequences of TR47 (SEQ ID NO:7), Ac-TR47 (SEQ ID NO:56), 16-mer-TR47 (SEQ ID NO:43), 9-mer-TR47 (SEQ ID NO:36), 8-mer-TR47 (SEQ ID NO:35), 6-mer-TR47 (SEQ ID NO:33), TR47 N−1 (SEQ ID NO:47), TR47 N−2 (SEQ ID NO:51), TR47 N−5 (SEQ ID NO:48), TR47AQ (SEQ ID NO:49), TR47AD (SEQ ID NO:52), TR47AA (SEQ ID NO:50) and TR48-54 (SEQ ID NO:53). […]

[1] = peptide 50 μM for 60 min before LPS (1 μg/mL) and ATP (5 mM), THP1 cells

| Compound | caspase 1 activity [1] | anti-inflammatory activities relative to that of TR47 | further results |
| --- | --- | --- | --- |
| CC(C)(O)c1coc(S(=O)(=O)NC(=O)Nc2c3c(cc4c2CCC4)CCC3)c1 [MCC950, reference compound] |  |  | caspase 1 activity (NLRP3 inhibitor MCC950 10 μM for 30 minutes after LPS, THP1-null cells treated with APC, TR47 or P3R): a significant reduction in caspase 1 activity across all treatments tested |
| APNDKYEPFWEDEEKNESGL [TR47ΔA] | similarly reduced caspase 1 activity | maintain substantial anti-inflammatory activities relative to that of TR47 |  |
| Ac-TR47: Acylated TR47 (N-terminus of TR47 acylated) (Ac-NPNDKYEPF; also: N-terminal acylation, acyl group not given here) | no reduction in caspase 1 activity was observed |  |  |
| FPFSALEGWTGATIT [P3R 51-65] |  |  | caspase-1 activity (PAR3 peptide 0 to 16 nM in the presence or absence of 1 nM P1(47-66)): only in the presence of 1 nM P1(47-66) was a significant reduction in caspase-1 activity seen; caspase 1 activity (peptide 50 μM for 60 min before LPS (1 μg/mL) and ATP (5 mM), THP1 cells, listed as P3(51-65)): alone is anti-inflammatory at relatively high concentrations; anti-inflammatory effect (caspase-1 activity) (peptide at 200 nM): neither the isolated PAR1-derived peptide nor the isolated PAR3-derived peptide had an any anti-inflammatory effect |
| GAPPNSFEEFPFS [P3Rm] | a significant reduction in caspase 1 activity was observed |  | synergistic anti-inflammatory activity (caspase 1 activity) (P3Rm (0 or 16 nM) combined with TR47 (1 nM), FIG. 6A): synergy observed; caspase 1 activity (peptide 2 μM for 1 hour before LPS and ATP, THP1 cells): this effect was lost |
| NDKYEPFWEDEEKNESGL [TR47 N−2] | a loss in inhibition of caspase 1 activity |  |  |
| NPNDKY [6-mer TR47] | lost its inhibitory activity |  |  |
| NPNDKYEP [8-mer TR47] | significantly reduced caspase 1 activity | maintain substantive anti-inflammatory activities relative to that of TR47 |  |
| NPNDKYEPF [9-mer] | reduced caspase 1 activity similar to the 20-mer TR47 | maintain substantive anti-inflammatory activities relative to that of TR47 | anti-inflammatory effect (caspase-1 activity) (peptide at 200 nM): neither the isolated PAR1-derived peptide nor the isolated PAR3-derived peptide had an any anti-inflammatory effect; anti-inflammatory effect (caspase-1 activity) (peptide at 500 nM): alone was anti-inflammatory |
| NPNDKYEPFWEDEEKN [16-mer TR47] | significantly reduced caspase 1 activity | maintain substantive anti-inflammatory activities relative to that of TR47 |  |
| P3R 54-59: fragment of PAR3-derived peptide P3R, residues 54-59 (SALEGW; UniProt O00254 54-59, looked up, fragment) | only partially reduced caspase 1 activity |  |  |
| P3R 59-65: fragment of PAR3-derived peptide P3R, residues 59-65 (WTGATIT; UniProt O00254 59-65, looked up, fragment) | only partially reduced caspase 1 activity |  |  |
| PNDKYEPFWEDEEKNESGL [TR47 N−1] | still reduced caspase 1 activity | maintain substantial anti-inflammatory activities relative to that of TR47 | synergistic anti-inflammatory activity (caspase 1 activity) (TR47(N−1) (0 or 4 nM) combined with 500 nM P3R, FIG. 6B): synergy observed |
| QPNDKYEPFWEDEEKNESGL [TR47ΔQ] | similarly reduced caspase 1 activity | maintain substantial anti-inflammatory activities relative to that of TR47 |  |
| SFLLRN [reference compound] | neither a scrambled TR47 nor the peptides, SFLLRN or TFLLRN which resemble the novel N-terminal amino acid sequence generated by thrombin's PAR1 cleavage at Arg41 had any effect on caspase 1 activity |  |  |
| TFLLRN (SFLLRN; UniProt P25116 42-47, looked up, fragment) [reference compound] | neither a scrambled TR47 nor the peptides, SFLLRN or TFLLRN which resemble the novel N-terminal amino acid sequence generated by thrombin's PAR1 cleavage at Arg41 had any effect on caspase 1 activity |  |  |
| TR48-54: truncated TR-peptide, removing one amino acid from the N-terminus and part of the C-terminus (FEEFPFS; UniProt O00254 48-54, looked up, fragment) | did not reduce caspase 1 activity |  |  |
| YEPFWEDEEKNESGL [TR47 N−5] | a reduction in caspase 1 activity was observed | maintain substantial anti-inflammatory activities relative to that of TR47 |  |
